Data on one molecule can be found in article PMC7560154, “Novel Antimicrobial Peptide from Temporin L in The Treatment of Staphylococcus pseudintermedius and Malassezia pachydermatis in Polymicrobial Inter-Kingdom Infection” (Antibiotics, 2020).

Data set [1] relates to M. pachydermatis. The method, then:
(§1) MIC of all compounds was determined in Sabouraud Dextrose broth with 1% tween 80 (SB) medium, for M. pachydermatis, and Mueller–Hinton broth (MH), for S. pseudintermedius, by the broth microdilution assay (BMD) in 96-well microtiter plates, as previously reported. Specifically, SB containing 1% Tween 80 was used instead of RPMI 1640 medium. All compounds were dissolved in ethanol and ketoconazole in dimethyl sulfoxide (DMSO). The solutions were serially diluted in SB and MH two-fold from 0.19 to 50 μM. M. pachydermatis suspension was prepared from 3-day-old colonies grown on Sabouraud agar at 30 °C. The final concentration of the yeast inoculum suspensions was equivalent to 1–3 × 10^3 CFU/mL. Bacterial suspensions were diluted to yield an optical density (OD) around 0.5 at 595 nm and further diluted to a final concentration of 1 × 10^6 CFU/mL. The compounds were added to the microbial suspension in each well yielding a final cell concentration of 5 × 10^5 CFU/mL. Positive controls included oxacillin 5 μM (2 μg/mL) and vancomycin 1.4 μM (2 μg/mL) for S. pseudintermedius or ketoconazole 0.2 μM (0.125 μg/mL) for M. pachydermatis. Negative control wells were set to contain bacteria in MH or yeasts in SB plus the amount of ethanol used to dilute each compound. Medium turbidity was measured by a microtiter plate reader (Tecan, Milan, Italy) at 595 nm after 24 h for S. pseudintermedius and 48 h for M. pachydermatis. Absorbance was proportional to microbial growth. The MIC was defined as the lowest concentration of drug that caused a prominent decrease (≥90% inhibition) in visible growth relative to that of the growth control.

Data set [2] deals with methicillin-resistant S. pseudintermedius (MRSP). Nature of the data set: microbe, parasite or virus in culture. In kind it is cell-based, Staphylococcus pseudintermedius. The method, then: as §1
Data set [3] relates to methicillin-susceptible S. pseudintermedius (MSSP). The data set can be described thus: microbe, parasite or virus in culture. The data set is classed as cell-based, Staphylococcus pseudintermedius. How it is done:
as §1

Data set [4] deals with MRSP. Nature of the data set: Time-kill assay, MRSP. The data set is classed as cell-based, Staphylococcus pseudintermedius. The method, then: Time kill assay was carried out as previously described. […] Plates were incubated at 37 °C on an orbital shaker at 120 rpm. Viability assessments were performed at 0, 2, 4, 6 and 24 h by plating 0.01 mL undiluted and 10-fold serially diluted samples onto Mueller–Hinton plates in triplicate. After overnight incubation at 37 °C, bacterial colonies were counted and compared with counts from control cultures.

The test system of data set [5] is MSSP mature biofilm. The data set can be described thus: Mature biofilm metabolic activity, XTT assay, MSSP. To be noted: 24 h. In kind it is cell-based, Staphylococcus pseudintermedius. How it is done:
The metabolic activity of MSSP and MRSP mature biofilms was quantified by the XTT [2,3-bis(2-methyloxy-4-nitro-5-sulfophenyl)-2H-tetrazolium-5-carboxanilide] (Roche Diagnostics, Germany) reduction assay. The assay was conducted as previously described with some modifications. XTT (150 µL) was added to biofilms in each well and the plates were incubated for 40 min at 37 °C in the dark. The reduction of the tetrazolium salt by cellular dehydrogenase into orange formazan dye was photometrically measured at 490 nm. The medium was set as negative control. Viability values for each well were compared to controls.
(In general: Tetrazolium assays rely on reduction of a dye to a coloured formazan, in cell work by metabolically active cells.)

In data set [6] the test system is mecA gene expression. Nature of the data set: mecA gene expression by RT-PCR. The data set is classed as cell-based, Staphylococcus pseudintermedius. The method, then:
The reaction was carried out in a DNA thermal cycler (MyCycler, Bio-Rad, Hercules, CA, USA). The PCR products were analysed by electrophoresis on 1.8% agarose gel in TBE and analysed on a Gel Doc EZ System (Bio-Rad, Hercules, CA, USA). RNA extraction was performed by using GenUp Total RNA kit (BiotechRabbit, Berlin, Germany) according to the manufacturer’s instructions. Five hundred nanograms of total cellular RNA were reverse-transcribed (RevertUP II Reverse Transcriptase, BiotechRabbit, Berlin, Germany) into cDNA using random hexamer primers (Random hexamer, Roche Diagnostics, Mannheim, Germany) at 48 °C for 60 min according to the manufacturer’s instructions. RT-PCR was carried out using 2 μL of cDNA, as reported above. Quantification data were normalized to the reference gene for 16S rRNA gene and analyzed by Image Lab software 5.2.1 (Bio-Rad, Hercules, CA, USA).

Data set [7] deals with human keratinocytes. To be noted: at MICs; cited from earlier work. An excerpt: Azole drugs represent the first choice to treat Malassezia-related infections. It is well known that routine antifungal administration may induce acquired resistance. Peptide 8 was further investigated to verify if prolonged treatment might induce resistance in the yeast. […] Thus, a prolonged application of peptide 8 can be resolutive for yeast infection, without causing drug-resistance. By considering the good results obtained until here, we were prompted to inves ...

Converted amounts (≈) assume the structure as drawn. Where a SMILES comes first, the peptide text is derived from it. [ ]: non-standard residue; d: D form.

Consider `CC[C@H](C)[C@H](NC(=O)[C@H](CCCNC(=N)N)NC(=O)[C@@H](CCCCN)NC(=O)[C@@H](CC(C)C)NC(=O)[C@H](Cc1ccccc1)NC(=O)[C@H](CCCCN)NC(=O)[C@H](CO)NC(=O)[C@H](Cc1ccccc1)NC(=O)[C@H](Cc1c[nH]c2ccccc12)NC(=O)[C@@H]1CCCN1C(=O)[C@@H](NC(=O)[C@@H](N)Cc1ccccc1)C(C)C)C(=O)N[C@@H](CC(C)C)C(N)=O` [Peptide 8] (H-FVPWFSKF[dL][dK]RIL-NH2; N-terminus assumed), for which the “MMC/MIC Ratio” value in data set [1] (M. pachydermatis) amounted to 1. Further, the “MMC Values (minimum mycocidal concentration)” value in data set [1] (≥3 log10 reduction in colony count from starting inoculum, agar 72 h at 30 °C) worked out at 6.25 µM. Besides, the results for the MBC in data set [2] (24 h) and in data set [3] (24 h) were 12.5 µM (≈ 21 µg/mL) and 3.12 µM (≈ 5.24 µg/mL), respectively. The MIC in data set [2] (24 h, read-out: MIC) stood at 6.25 µM (≈ 10.5 µg/mL); in data set [3] (24 h, read-out: MIC), 1.56 µM (≈ 2.62 µg/mL). The “MBC/MIC Ratio” value in data set [2] (MRSP) and in data set [3] (MSSP) was 2 each time. Besides, the “Log10CFU/mL 0 h” value in data set [4] (peptide at MIC value (6.25 μM), 37 °C, 0 h, three independent experiments in triplicate) came out at 5.30 ± 0.18 Log10CFU/mL. In addition, the “Log10CFU/mL 1 h” value in data set [4] (peptide at MIC value (6.25 μM), 1 h) worked out at 2.47 ± 0.18 Log10CFU/mL. Also, in data set [4] (peptide at MIC value (6.25 μM), 2 h), the “Log10CFU/mL 2 h” value was 2.38 ± 0.19 Log10CFU/mL. In addition, the “Log10CFU/mL 4 h” value in data set [4] (peptide at MIC value (6.25 μM), 4 h) is listed as 1.30 ± 0.21 Log10CFU/mL. Further, the “Log10CFU/mL 6 h” value in data set [4] (peptide at MIC value (6.25 μM), 6 h) came out at 0.77 ± 0.12 Log10CFU/mL. Moreover, the “Log10CFU/mL 24 h” value in data set [4] (peptide at MIC value (6.25 μM), 24 h) is recorded as 4.86 ± 0.28 Log10CFU/mL. Moreover, the “Bactericidal or bacteriostatic activity” value in data set [4] (time-kill at MIC value) is reported as “bacteriostatic”. Moreover, the “Reduction of biofilm viability” value in data set [5] (12.5 μM) was 38%. Besides, the “Effect on biofilm viability at 25 μM” value in data set [5] (25 μM) is “reduced effect”. For the same molecule, the “Regulation of mecA gene expression” value in data set [6] is given as “did not regulate mecA gene expression”. In addition, in data set [7], the Cytotoxicity result is reported as “low cytotoxicity”.
